We go through 15 compounds from ChEMBL document CHEMBL4411306, “High-throughput screening of novel pyruvate dehydrogenase kinases inhibitors and biological evaluation of their in vitro and in vivo antiproliferative activity” (Eur J Med Chem, 2019).

One may read the Papp as the rate of passage across a membrane or cell layer, normalised by area and donor concentration. Read a high Papp as ready permeation. Broadly, the IC50 is the point on the concentration scale where inhibition reaches its midpoint. By Kd is commonly meant a measure of binding affinity in units of concentration. The term EC50 denotes the concentration at which the effect is half-maximal. The inhibition is how much of the control response was suppressed.

A short description of data set [1]: Permeability across human Caco2 cells by liquid scintillation counting method. Format: ADME, cell-based. The conditions noted are these: caco-2. On the technique in general: Passage across Caco-2 layers is used to estimate intestinal permeability.
The test system of another data set is A-375. The experiment in a line: Antiproliferative activity against human A375 cells assessed as reduction in cell viability after 72 hrs by MTT assay. In kind it is functional.
The target in data set [2] is [Pyruvate dehydrogenase (acetyl-transferring)] kinase isozyme 4, mitochondrial (Homo sapiens, UniProt Q16654). Put plainly: Inhibition of recombinant human His-tagged PDK4 expressed in Escherichia coli using PDH E1 as substrate measured after 30 mins by Kinase-Glo luminescence assay. Background: Kinase-Glo measures the ATP left after a reaction by luminescence.
In data set [3] the target is T1, [Pyruvate dehydrogenase (acetyl-transferring)] kinase isozyme 2, mitochondrial (Homo sapiens, UniProt Q15119). Put plainly: Inhibition of recombinant human His-tagged PDK2 expressed in Escherichia coli using PDH E1 as substrate measured after 30 mins by Kinase-Glo luminescence assay.
The test system of data set [4] is NCI-H1975. The experiment in a line: Inhibition of PDK in human NCI-H1975 cells assessed as reduction in PDH phosphorylation at 10 uM after 12 hrs by Western blot analysis. Format: cell-based. For orientation: A western blot detects proteins with antibodies after separation by electrophoresis.
Another data set has as its system HCT-116. The experiment in a line: Antiproliferative activity against human HCT116 cells assessed as reduction in cell viability after 72 hrs by MTT assay. In kind it is functional.
In a further data set the test system is A549. The experiment in a line: Antiproliferative activity against human A549 cells assessed as reduction in cell viability after 72 hrs by MTT assay. In kind it is functional.
The next data set concerns HepG2. Put plainly: Antiproliferative activity against human HepG2 cells assessed as reduction in cell viability after 72 hrs by MTT assay. Format: functional.
Data set [5] addresses [Pyruvate dehydrogenase (acetyl-transferring)] kinase isozyme 3, mitochondrial (Homo sapiens, UniProt Q15120). Put plainly: Inhibition of recombinant human His-tagged PDK3 expressed in Escherichia coli using PDH E1 as substrate measured after 30 mins by Kinase-Glo luminescence assay.
A short description of data set [6]: Antiproliferative activity against human BEAS2B cells assessed as reduction in cell viability after 72 hrs by MTT assay. Format: cell-based. The following applies: BEAS-2B cells, read-out: GC50.
The subject of the next data set is NCI-H1650. Put plainly: Antiproliferative activity against human NCI-H1650 cells assessed as reduction in cell viability after 72 hrs by MTT assay. In kind it is functional.
In data set [7] the target is T2, [Pyruvate dehydrogenase (acetyl-transferring)] kinase isozyme 1, mitochondrial (Homo sapiens, UniProt Q15118). The experiment in a line: Binding affinity to recombinant human His-tagged PDK1 expressed in Escherichia coli by isothermal calorimetry.
Data set [8] has as its target T2, [Pyruvate dehydrogenase (acetyl-transferring)] kinase isozyme 1, mitochondrial. The experiment in a line: Inhibition of recombinant human His-tagged PDK1 expressed in Escherichia coli using PDH E1 as substrate measured after 30 mins by Kinase-Glo luminescence assay.
Data set [9] deals with NCI-H1975. Put plainly: Antiproliferative activity against human NCI-H1975 cells assessed as reduction in cell viability after 72 hrs by MTT assay. In kind it is functional.
For a further data set, the target named is Heat shock protein HSP90 (Homo sapiens, UniProt P07900+P08238). The experiment in a line: Inhibition of human HSP90 measured after 30 mins by fluorescence polarization assay. In kind it is protein assay.
Data set [10] is described as follows: Inhibition of porcine PDK assessed as activation of pyruvate dehydrogenase complex measured after 3 mins. Also on record: species or system Sus scrofa.
In the next data set the test system is MCF7. The experiment in a line: Antiproliferative activity against human MCF7 cells assessed as reduction in cell viability after 72 hrs by MTT assay. Format: functional.
The target of data set [11] is T1, [Pyruvate dehydrogenase (acetyl-transferring)] kinase isozyme 2, mitochondrial. Put plainly: Inhibition of E2-activated human PDHK2.
Data set [12] deals with T2, [Pyruvate dehydrogenase (acetyl-transferring)] kinase isozyme 1, mitochondrial. The conditions noted are these: NCI-H1975, 10 mM.
Description: Inhibition of PDK1 in human NCI-H1975 cells assessed as switch of pyruvate metabolism from lactate production to oxidative phosphorylation by measuring decrease in extracellular acidification rate at 10 mM measured after 4 hrs by XFe24 extracellular flux analyzer based assay
Data set [13] concerns NCI-H1975. Put plainly: Inhibition of PDK in human NCI-H1975 cells assessed as reduction in PDH phosphorylation at Ser293 residue at 10 mM by ELISA. In kind it is cell-based.
For the next data set, the species on record is Sus scrofa. Put plainly: Inhibition of porcine PDK assessed as activation of pyruvate dehydrogenase complex at 10 mM measured after 3 mins relative to control.
Data set [14] addresses T2, [Pyruvate dehydrogenase (acetyl-transferring)] kinase isozyme 1, mitochondrial. The conditions noted are these: NCI-H1975, 10 mM. The source holds these as a separate data set.
Description: Inhibition of PDK1 in human NCI-H1975 cells assessed as switch of pyruvate metabolism from lactate production to oxidative phosphorylation by measuring by measuring reduction in lactate formation at 10 mM measured after 4 hrs
Data set [15] has as its system NCI-H1975. Put plainly: Inhibition of PDK in human NCI-H1975 cells assessed as reduction in PDH phosphorylation at 10 mM after 12 hrs by Western blot analysis. In kind it is cell-based.
Data set [16] has as its target T2, [Pyruvate dehydrogenase (acetyl-transferring)] kinase isozyme 1, mitochondrial. The following applies: NCI-H1975, 10 mM. The source holds these as a separate data set.
Description: Inhibition of PDK1 in human NCI-H1975 cells assessed as switch of pyruvate metabolism from lactate production to oxidative phosphorylation by measuring increase in oxygen consumption rates at 10 mM measured after 4 hrs by XFe24 extracellular flux analyzer based assay

Structures are written as SMILES. Calls of active or inactive are those of the source. The rule behind the calls is not given here. Bounds are passed on as bounds.

T2 sequence (Q15118 whole entry): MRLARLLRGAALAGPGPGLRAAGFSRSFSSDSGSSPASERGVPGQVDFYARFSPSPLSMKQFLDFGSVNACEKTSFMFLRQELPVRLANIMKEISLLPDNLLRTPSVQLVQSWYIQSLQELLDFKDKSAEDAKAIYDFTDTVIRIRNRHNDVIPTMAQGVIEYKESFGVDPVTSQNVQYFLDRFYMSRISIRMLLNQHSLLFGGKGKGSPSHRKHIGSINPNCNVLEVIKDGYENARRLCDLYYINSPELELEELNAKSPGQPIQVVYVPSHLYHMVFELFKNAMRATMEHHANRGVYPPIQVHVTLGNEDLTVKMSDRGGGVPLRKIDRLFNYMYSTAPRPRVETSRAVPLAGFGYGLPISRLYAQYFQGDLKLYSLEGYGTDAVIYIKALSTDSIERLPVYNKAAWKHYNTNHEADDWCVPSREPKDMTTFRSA
[Pyruvate dehydrogenase (acetyl-transferring)] kinase isozyme 3, mitochondrial, sequence (Q15120 whole entry): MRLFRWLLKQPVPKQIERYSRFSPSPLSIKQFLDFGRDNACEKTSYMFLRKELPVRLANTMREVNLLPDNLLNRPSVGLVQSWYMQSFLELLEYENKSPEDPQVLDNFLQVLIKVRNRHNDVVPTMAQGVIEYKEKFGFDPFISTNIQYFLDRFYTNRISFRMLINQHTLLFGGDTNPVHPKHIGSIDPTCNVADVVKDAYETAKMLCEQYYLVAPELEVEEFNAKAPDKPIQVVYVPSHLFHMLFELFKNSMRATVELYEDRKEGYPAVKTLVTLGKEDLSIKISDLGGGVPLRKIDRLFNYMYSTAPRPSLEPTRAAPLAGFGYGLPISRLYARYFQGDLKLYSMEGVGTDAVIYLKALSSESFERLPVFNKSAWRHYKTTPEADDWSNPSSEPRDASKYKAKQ
[Pyruvate dehydrogenase (acetyl-transferring)] kinase isozyme 4, mitochondrial, sequence (Q16654 whole entry): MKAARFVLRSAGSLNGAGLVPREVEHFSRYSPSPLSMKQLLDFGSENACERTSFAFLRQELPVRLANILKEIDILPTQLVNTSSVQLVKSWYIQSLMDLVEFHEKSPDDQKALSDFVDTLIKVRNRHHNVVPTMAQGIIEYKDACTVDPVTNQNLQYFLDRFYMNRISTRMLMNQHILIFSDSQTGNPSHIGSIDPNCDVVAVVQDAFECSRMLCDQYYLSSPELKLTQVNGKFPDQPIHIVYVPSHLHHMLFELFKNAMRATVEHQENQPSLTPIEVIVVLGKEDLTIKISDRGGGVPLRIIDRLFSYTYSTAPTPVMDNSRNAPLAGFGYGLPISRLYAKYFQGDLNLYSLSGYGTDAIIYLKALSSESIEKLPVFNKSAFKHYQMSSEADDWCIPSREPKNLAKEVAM

`CC(C)CNS(=O)(=O)c1ccc(OCC(=O)N(Cc2ccccc2)Cc2ccccc2)cc1` yielded a Papp in data set [1] of 1.14 ×10⁻⁶ cm/s. Also, the Activity result in the data set on A-375, in the data set with HCT-116, in the data set on A549, with HepG2, in the data set with NCI-H1650 and with NCI-H1975 [9] was “Dose-dependent effect” each time. In addition, the Activity result with MCF7 was “Dose-dependent effect”. Besides, the GC50 with A-375 was 12.3 µM; in the data set with HCT-116 it was above 20 µM; in the data set on A549, 17.5 µM; in the data set with HepG2, 18.2 µM; with NCI-H1650, above 20 µM; in the data set on NCI-H1975 [9], above 20 µM. The GC50 in the data set with MCF7 is above 20 µM. Besides, the IC50 was 6.9 µM in [2]; 5.9 µM in data set [3]; 4.9 µM in data set [5]; 0.89 µM in data set [8]; 3.58 µM against Heat shock protein HSP90. Besides, in the data set with NCI-H1975 [4], the “reduction in PDH phosphorylation (qualitative)” value (“reduction in PDH phosphorylation” below) was “Active”. Also, in [6], the GI50 at 72 h is above 20 µM. The Kd in [7] was determined as 1.49 µM. Further, in data set [10], the EC50 was determined as 1.4 µM.

As for `Cc1ccc(NC(=O)CSc2c[nH]c(-c3ccccc3O)n2)cc1`, the “reduction in PDH phosphorylation” value in the data set with NCI-H1975 [4] was “Active”. The EC50 in data set [10] stood at 4.6 µM.

Regarding `O=C(Nc1ccc(Cl)cc1C(=O)N1CCCC[C@@H]1CCO)c1ccc(Cl)cc1Cl`, the “reduction in PDH phosphorylation” value with NCI-H1975 [4] is “Active”. Besides, the EC50 in [10] was found to be 8.4 µM.

With `C[C@@H]1CN(C(=O)[C@](C)(O)C(F)(F)F)[C@@H](C)CN1C(=O)c1ccc(C#N)cc1`, the IC50 in data set [11] was determined as 0.0078 µM.

Take `C[C@H]1CCc2c(sc3nc(SCCN4CCCC4)n(N)c(=O)c23)C1`: the Papp in [1] was determined as 0.96 ×10⁻⁶ cm/s. The Activity result in the data set with A-375, in the data set with HCT-116, in the data set on A549, in the data set on HepG2, with NCI-H1650 and with NCI-H1975 [9] was “Dose-dependent effect” each time. Also, the Activity entry in the data set on MCF7 was “Dose-dependent effect”. The GC50 was above 20 µM in the data set with A-375; above 20 µM in the data set on HCT-116; above 20 µM with A549; above 20 µM in the data set with HepG2; 16.3 µM in the data set with NCI-H1650; 15.6 µM with NCI-H1975 [9]. Besides, the GC50 in the data set with MCF7 was above 20 µM. Moreover, the IC50 came to 14.7 µM in [2]; 10.5 µM in data set [3]; 8.3 µM in data set [5]; 5.9 µM in [8]; 2.7 µM against Heat shock protein HSP90. The “reduction in PDH phosphorylation” value with NCI-H1975 [4] is “Active”. The GI50 at 72 h in [6] is above 20 µM. The Kd in data set [7] stood at 3.5 µM. The EC50 in [10] stood at 1.6 µM.

Consider `Cc1cnc(Cl)nc1-c1ccc(N(Cc2ccc(CNC(=O)C(F)F)cc2)C(=O)c2ccc(O)cc2O)cc1`, for which the EC50 in data set [10] is 0.12 µM.

In [1], `COc1cccc2c1C(=O)c1c(O)c3c(c(O)c1C2=O)C[C@@](O)(C(=O)CO)C[C@@H]3O[C@H]1C[C@H](N)[C@H](O)[C@H](C)O1` [DOXORUBICIN] yielded a Papp of 0.21 ×10⁻⁶ cm/s.

Turning to `O=C(c1ccccc1)C(Cl)Cl`, the “reduction in PDH phosphorylation” value in the data set with NCI-H1975 [4] was “Active”. Further, the 50% effective concentration (EC50) in data set [10] is above 1000 µM.

With `COc1ccc(-c2nnn(CC(=O)Nc3cccc(F)c3)n2)cc1`, the “reduction in PDH phosphorylation” value in the data set on NCI-H1975 [4] was “Active”. Moreover, the EC50 in data set [10] was 6.9 µM.

Turning to `CC(C)Cc1ccc(C(C)C(=O)O)cc1` (centres undefined) [IBUPROFEN], the Papp in data set [1] worked out at 47.2 ×10⁻⁶ cm/s.

In turn, `CN(C)C(=O)c1ccc(S(=O)(=O)c2ccc(NC(=O)[C@@](C)(O)C(F)(F)F)c(Cl)c2)cc1` came in with a half-maximal inhibitory concentration (IC50) in data set [11] of 0.08 µM.

Regarding `O=C(O)C(Cl)Cl` [DICHLOROACETIC ACID], the inhibition result (in [12]; in the data set on NCI-H1975 [13]; in [14]; in the data set with NCI-H1975 [15]; in [16]) was “Active” each time. In addition, in the data set filed under Sus scrofa, the inhibition was 54.8%. For the same compound, the EC50 in [10] was above 100 µM.

For the compound `COc1ccc(C(=O)CSc2nnc(CNc3ccccc3OC)n2-c2ccccc2)cc1`, the “reduction in PDH phosphorylation” value in the data set with NCI-H1975 [4] was “Active”. The EC50 in data set [10] was 5.2 µM.

Regarding `CC(=O)N[C@@H](Cc1c[nH]c2ccccc12)C(=O)NCCOc1ccc(C2CCCCC2)cc1`, the “reduction in PDH phosphorylation” value in the data set with NCI-H1975 [4] was “Active”. Further, in data set [10], the EC50 came to 3.5 µM.

Take `CCOc1ccc([C@@H]2C(C(=O)Nc3cccnc3)=C(C)Nc3nc(CCCO)nn32)cc1`: in the data set on NCI-H1975 [4], the “reduction in PDH phosphorylation” value was “Active”. Besides, in [10], the EC50 is 5.9 µM.
